{
  "source": "patent US20240398749A1",
  "about": "“INHALABLE PROTEASE INHIBITORS FOR USE IN THE PREVENTION AND/OR TREATMENT OF FIBROTIC AUTOIMMUNE OR INFLAMMATORY LUNG DISEASES” (priority 2021, published 2024)",
  "key": {"mice": {"tested_on": "mice", "conditions": "cited from earlier work"}, "rats": {"tested_on": "rats", "assay": "Toxicology study, 14-day inhalational applications", "conditions": "inhalation on 14 consecutive days"}, "Mouse-Coronavirus": {"tested_on": "Mouse-Coronavirus", "conditions": "Mouse-Coronavirus model systems; cited from earlier work"}, "physchem": {"assay": "physchem", "conditions": "organic solvent or mixture"}, "fibroblasts": {"tested_on": "fibroblasts", "format": "cell-based"}, "[1]": {"tested_on": "human peripheral blood cells (PBI)", "assay": "Chromosome aberration test"}, "[2]": {"conditions": "cited from earlier work"}, "SARS-CoV-2 [3]": {"tested_on": "SARS-CoV-2", "format": "cell-based", "conditions": "A549, MOI 5, 100 μM"}, "[4]": {"tested_on": "THP1 cells (macrophage-like cell line)", "assay": "IL-8 release from stimulated THP1 cells", "format": "cell-based", "conditions": "IL-1 or TNF/IL-1 stimulated cells, 24 hours", "protocol": "This stimulation corresponds to a pro-inflammatory response. The supernatants were then removed, and the IL-8 release was measured."}, "Vero e6-cells": {"tested_on": "Vero e6-cells", "conditions": "concentrations up to 100 μM"}, "SARS-CoV-2 [5]": {"tested_on": "SARS-CoV-2", "conditions": "E64d added to the TMPRSS2 inhibitor Camostat; cited from earlier work"}, "A549 cells [6]": {"tested_on": "A549 cells", "format": "cell-based"}, "Wistar rats": {"tested_on": "Wistar rats", "assay": "Dose range finding study, 14 days nose-only inhalation", "format": "in vivo", "conditions": "for lung with a spongy consistency (animals affected): females", "source_text": "The purpose of this study was to perform a dose range finding (DRF) study using 14 days nose-only-inhaled Aloxistatin in rats. Possible side effects of Aloxistatin were characterized based on clinical observations, body weight, hematology, clinical pathology, macroscopic examination and histopathology of selected organs (respiratory tract, heart, kidneys, liver and spleen). Additionally, the setup of chemical analysis method for toxicokinetic analysis was established.\nFor the study, 64 Wistar rats [Crl:Wistar(Han)] received the test item at doses of 22.67, 68 or 227 μg/kg bw for 14 consecutive days via nose-only inhalation. Ethanol ≥96% was used as vehicle. Animals of the main study were sacrificed on […].\nAll animals were clinically observed in their cages at least once a day. Individual body weights were determined twice weekly. Blood samples for hematology and clinical chemistry were withdrawn before the exposure and on day 14. Necropsy, including a macroscopic evaluation of selected organs, was performed on day 15 or day 29 followed by histopathology of preselected organs. All macroscopic changes were recorded. Blood and lung sampling for setup of chemical analysis method for toxicokinetic analysis was performed on day 1 and 15 and upon sacrifice (day 2 and 15), respectively."}, "[7]": {"assay": "Nebulizer test / cascade impactor measurements with M-neb dose+", "format": "physicochemical"}, "[8]": {"conditions": "in vivo, po; cited from earlier work"}, "IL-17 release": {"tested_on": "IL-17 release", "assay": "IL-17 release from human mononuclear cells in whole blood stimulated with cytokines", "format": "cell-based"}, "A549 cells [9]": {"tested_on": "A549 cells", "assay": "IL-8 release from A549 cells, spontaneous or TGFbeta-induced", "format": "cell-based", "conditions": "TGFbeta stimulation, 24 h, 10 μg/ml E64D"}, "SARS-CoV-2 [10]": {"tested_on": "SARS-CoV-2", "format": "cell-based", "conditions": "HEK293-ACE2, MOI 5, 100 μM"}, "pseudovirus": {"tested_on": "pseudovirus", "assay": "Pseudovirus inoculation of human ACE2 transgenic mice, bioluminescence assay", "format": "in vivo", "conditions": "pre-treated via tail vein injection 2 days prior to virus inoculation; 1 day post infection"}, "[11]": {"tested_on": "Salmonella typhimurium strains TA 1535, TA 1537, TA 98, TA 100, and the Escherichia coli strain WP2 uvrA", "assay": "Reverse mutation assay (plate incorporation test)"}, "Th17 differentiation": {"tested_on": "Th17 differentiation", "conditions": "rats; cited from earlier work"}, "Th17-lymphocytes": {"tested_on": "Th17-lymphocytes", "assay": "Measurement of Th17-lymphocytes by flow cytometry", "format": "cell-based, human"}, "[12]": {"conditions": "22.67, 68 or 227 μg/kg bw, 14 days nose-only inhalation"}},
  "note": "Values joined by “and” are separate entries in the source; they are usually repeats but may differ in a detail not shown here. Identical values can stand only once. Like-named read-outs stand apart in the source and are kept apart here.",
  "data": [
    {"smiles": "CC(C)C[C@H](NC(=O)[C@H]1O[C@@H]1C(=O)O)C(=O)NCCCCN=C(N)N", "note": "[E64]", "values": [
      {"measurement": "emphysematous changes", "setting": "mice", "value": "markedly attenuated emphysematous changes"}
    ]},
    {"smiles": "CCOC(=O)[C@H]1O[C@@H]1C(=O)N[C@@H](CC(C)C)C(=O)NCCC(C)C", "note": "[E64D, aloxistatin]", "values": [
      {"measurement": "No-Observed-Adverse-Effect-Level (NOAEL), pulmonary dose", "setting": "rats", "value": 413, "unit": "μg/kg bw"},
      {"measurement": "virus replication", "setting": "Mouse-Coronavirus", "value": "effective inhibition of virus replication"},
      {"measurement": "solubility", "setting": "physchem", "value": "≤ 68000 µg/mL and ≤ 199000 µM"},
      {"measurement": "IL-17 induced proliferation and differentiation of fibroblasts", "setting": "fibroblasts", "value": "inhibiting the IL-17 induced proliferation and differentiation of fibroblasts"},
      {"measurement": "aberrant cells (gaps excluded)", "setting": "[1]; after 4 h of treatment, both without and with S9-mix", "value": "only one aberrant cell"},
      {"measurement": "structural chromosome aberrations", "setting": "[1]; treated PBL", "value": "nearly complete absence of structural chromosome aberrations"},
      {"measurement": "serum AST and ALT activities", "setting": "[2]; rat, in vivo", "value": "rose dramatically"},
      {"measurement": "time of minimum liver GSH level after administration", "setting": "[2]; rat, in vivo", "value": 5, "unit": "h"},
      {"measurement": "liver glutathion (GSH) levels", "setting": "[2]; rats", "value": "obvious drop"},
      {"measurement": "cell lysis", "setting": "SARS-CoV-2 [3]", "value": "effectively inhibited"},
      {"measurement": "virus replication of SARS-CoV-2", "setting": "SARS-CoV-2 [3]", "value": "effectively inhibited"},
      {"measurement": "IL-8 release", "setting": "[4]", "value": "clearly lowers the IL-8 release"},
      {"measurement": "cytotoxicity", "setting": "Vero e6-cells", "value": "non-toxic"},
      {"measurement": "inhibition of virus entry", "setting": "SARS-CoV-2 [5]", "value": "additive efficacy"},
      {"measurement": "TGF-beta induced release of alpha-smooth muscle actin (aSMA)", "setting": "A549 cells [6]", "value": "inhibits the TGF-beta induced release"},
      {"measurement": "TGF-beta induced release of collagen 1", "setting": "A549 cells [6]", "value": "inhibits the TGF-beta induced release"},
      {"measurement": "TGFbeta-induced collagen production", "setting": "A549 cells [6]", "value": "lowers the TGFbeta-induced collagen production of A549 in a dose-dependent manner"},
      {"measurement": "TGFbeta-induced collagen release at highest dose", "setting": "A549 cells [6]", "value": "almost goes back to the initial value"},
      {"measurement": "body weight", "setting": "Wistar rats; [12]", "value": "no statistical differences between the groups"},
      {"measurement": "changes in clinical chemistry parameters", "setting": "Wistar rats; [12]", "value": "considered incidental"},
      {"measurement": "clinical observations", "setting": "Wistar rats; [12]", "value": "no clinical observations were noted"},
      {"measurement": "mortality", "setting": "Wistar rats; [12]", "value": "No animal was found dead or killed moribund"},
      {"measurement": "lung with a spongy consistency (animals affected)", "setting": "Wistar rats; low dose group", "value": "1/5"},
      {"measurement": "lung with a spongy consistency (animals affected)", "setting": "Wistar rats; medium dose group", "value": "1/5"},
      {"measurement": "slightly enlarged lung-associated lymph nodes (animals affected)", "setting": "Wistar rats; male animals, medium dose group, macroscopic examination", "value": "2/5"},
      {"measurement": "histopathological examination", "setting": "Wistar rats; respiratory tract, lymph nodes, heart, kidneys, liver, spleen, after 14 days and after 14 days recovery", "value": "no treatment-related findings were detected"},
      {"measurement": "aerosol output (fraction of actually inhaled E64d)", "setting": "[7]; 0.34 mg/ml solution", "value": 80, "unit": "%"},
      {"measurement": "aerosol output (fraction of actually inhaled E64d)", "setting": "[7]; 34 mg/ml solution", "value": 63, "unit": "%"},
      {"measurement": "fine particle fraction (<5 μm)", "setting": "[7]; all concentrations tested (0.34, 3.4 and 34 mg/ml)", "value": "> 95", "unit": "%"},
      {"measurement": "aerosol release rate", "setting": "[7]; concentration of the solution 340 ug/ml", "value": 0.108, "unit": "mg/min"},
      {"measurement": "aerosol release rate", "setting": "[7]; concentration of the solution 3.4 mg/ml", "value": 1, "unit": "mg/min"},
      {"measurement": "aerosol release rate", "setting": "[7]; concentration of the solution 34 mg/ml", "value": 8.7, "unit": "mg/min"},
      {"measurement": "cumulative active compound deposition", "setting": "[7]; particle size distribution about 0.5-3 μm, impactor assays", "value": "> 99", "unit": "%"},
      {"measurement": "dose absorbed", "setting": "[8]", "value": "at least 60%"},
      {"measurement": "release of the cytokine IL-17", "setting": "IL-17 release", "value": "can be inhibited"},
      {"measurement": "TGFbeta-induced IL-8 release", "setting": "A549 cells [9]", "value": "block the induction almost completely"},
      {"measurement": "cell lysis", "setting": "SARS-CoV-2 [10]", "value": "effectively inhibited"},
      {"measurement": "virus replication of SARS-CoV-2", "setting": "SARS-CoV-2 [10]", "value": "effectively inhibited"},
      {"measurement": "bioluminescence activity (virus replication)", "setting": "pseudovirus", "value": "decrease in bioluminescence activity"},
      {"measurement": "precipitation in the overlay agar on the incubated agar plates", "setting": "[11]", "value": 5000, "unit": "μg/plate"},
      {"measurement": "toxic effects (reduction in the number of revertants)", "setting": "[11]; all strains, with and without metabolic activation, up to 5000 μg/plate", "value": "No toxic effects"},
      {"measurement": "increase in revertant colony numbers", "setting": "[11]; five tester strains, any dose level, with and without S9 mix", "value": "No substantial increase"},
      {"measurement": "mutagenicity", "setting": "[11]; reverse mutation assay conclusion", "value": "non-mutagenic"},
      {"measurement": "Th17 differentiation", "setting": "Th17 differentiation", "value": "suppresses Th17 differentiation in a dose-dependent manner"},
      {"measurement": "polarization of Th2-lymphocytes", "setting": "Th17-lymphocytes", "value": "polarize Th2-lymphocytes into Th1-lymphocytes"},
      {"measurement": "Th1 cells", "setting": "Th17-lymphocytes; co-incubation with E64D", "value": "dose-dependently up-regulates"},
      {"measurement": "Th17 and Th17.1 cells", "setting": "Th17-lymphocytes; co-incubation with E64D", "value": "dose-dependently down-regulates"},
      {"measurement": "Treg lymphocytes", "setting": "Th17-lymphocytes; co-incubation with E64D", "value": "upregulation of Treg lymphocytes"},
      {"measurement": "percentage of Th17 cells", "setting": "Th17-lymphocytes; stimulation with IC-beads, with or without cytokine mix, whole blood lymphocytes and T-lymphocytes from bronchoalveolar lavage", "value": "reduces the percentage of Th17 cells"}
    ]}
  ]
}
